Columns and labels:
firefly luciferase = target: T1, firefly luciferase (Photinus pyralis, UniProt P08659); test: Bioluminescence spectrum of probe B-YL with firefly luciferase; assay type: biochemical
T1 construct: purchased Sigma
Experimental: After the synthesis of the biotinylated probe, B-YL, the probe can be evaluated with a commercially available firefly luciferase. […] The mechanism for generating bioluminescence is shown in Scheme 2.
In a well of 96 quartz plate (500 μl), HEPES buffer (30 mM) solution (400 μl, pH=7.7) containing MgSO4 (5.0 mM), ATP (2.6 mM), DTT (3.5 mM), CoA (1.5 mM) and commercially available firefly luciferase (40 μg/ml), was prepared. The probe B-YL was then added and mixed to a final concentration (32 μM). Bioluminescence spectrum of B-YL was then taken immediately with instrument SynergyMx (BioTek, VT).

U87-luc cells = test: Bioluminescence imaging of luciferase-transfected brain cancer cells in vitro; assay type: cell-based; conditions: B-YL 100 μg/mL, L-15 medium with MgCl2 5 mM
Experimental: (§1) Triplicate wells were plated with increasing numbers of either U87 cells without luciferase (a) or with luciferase (b). In each plate: Row 1, wells 1-3, no cells; wells 4-6, 1,875 cells per well. Row 2, wells 1-3, 3,750 cells per well; wells 4-6, 7,500 cells per well. Row 3, wells 1-3, 15,000 cells per well; wells 4-6, 30,000 cells per well. Row 4, wells 1-3, 60,000 cells per well. Incubation buffer, Leibovitz's L-15 medium with MgCl2 (5 mM). Each well was incubated with B-YL (100 μg/mL). Plates were imaged using an IVIS 200 In vivo Imaging System. Escalating luminescence was observed only in wells containing luciferase-expressing cells (b).
(§2) The B-YL substrate can be incubated with the brain cancer cell line U87-luc, which was derived from the parental brain cancer cell line U87 after stable transfection with a luciferase gene. […] B-YL clearly adsorbed across the cell membrane and was oxidized by luciferase. Therefore, B-YL can be used for the detection of the cancer cells by bioluminescence.
(§3) The EGF-B-SA-B-YL complex can be tested for the ability to target and image brain cancer cell lines that overexpress the biomarker EGFR using bioluminescence in vitro. U87 (gray hatch bars) and U87-luc (black bars) cells can be treated with free B-YL (150 μg/m L), untargeted B-SA-B-YL complex (150 μg/mL) or EGFR-targeted EGF-B-SA-B-YL complex (50-150 µg/mL). Bioluminescence were detected immediately. […]

U87 cells = test: Bioluminescence imaging of parental brain cancer cells without luciferase in vitro; assay type: cell-based
Experimental: as §1, §2, §3

T1 sequence (P08659 whole entry): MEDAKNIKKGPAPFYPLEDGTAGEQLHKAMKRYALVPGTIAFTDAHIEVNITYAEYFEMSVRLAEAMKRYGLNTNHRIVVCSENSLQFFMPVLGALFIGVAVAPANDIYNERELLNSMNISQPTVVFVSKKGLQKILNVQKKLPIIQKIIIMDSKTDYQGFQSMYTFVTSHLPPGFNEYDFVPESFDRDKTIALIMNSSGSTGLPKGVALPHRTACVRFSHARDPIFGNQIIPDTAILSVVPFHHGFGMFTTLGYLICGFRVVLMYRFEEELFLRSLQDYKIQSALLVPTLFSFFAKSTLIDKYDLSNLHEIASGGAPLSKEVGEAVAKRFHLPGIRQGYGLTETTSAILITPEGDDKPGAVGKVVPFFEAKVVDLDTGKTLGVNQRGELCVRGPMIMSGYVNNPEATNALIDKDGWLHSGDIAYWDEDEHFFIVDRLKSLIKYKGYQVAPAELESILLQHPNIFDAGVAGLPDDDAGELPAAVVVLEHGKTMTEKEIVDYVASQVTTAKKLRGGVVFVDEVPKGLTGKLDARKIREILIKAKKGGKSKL

6-(3-N—{N-[5-(Hexahydro-2-oxo-1H-thieno[3,4-d]imidazol-4-yl)-1-oxopentyl]-, [3aS-(3aα,4β, 6aα)]}-aminoethyl-poly(ethylene glycol)21-oxyethyl-1H-1,2,3-triazol-5-yl-methylamino-oxomethyl-amino)-2-benzothiazolyl]-4,5-dihydro-,(4S)-4-thiazolecarboxylic acid [B-YL]
substrate of firefly luciferase (firefly luciferase; commercial firefly luciferase): found to be a substrate of firefly luciferase | bioluminescence maximum emission (firefly luciferase; commercial firefly luciferase 40 μg/ml, B-YL 32 μM, HEPES buffer pH 7.7): 590 nm | number of U87-luc cells at which bioluminescence signal was detected (FIG. 1b) (U87-luc cells): at least 7,500 cells per well | bioluminescence activity in parental U87 cells (FIG. 1a) (U87 cells; B-YL 100 μg/mL, 0-60,000 cells per well, L-15 medium with MgCl2 5 mM): did not reveal bioluminescence activity regardless of the number of cells | conversion to bioluminescence photons by U87 cells (FIG. 2) (U87 cells; U87 cells without luciferase): Neither of the complexes (B-SA-B-YL or EGF-B-SA-B-YL) nor free B-YL were converted to bioluminescence photons
